From US20200222474A1, “COMPOSITIONS AND METHODS FOR INCREASING PHYTOCHEMICAL BIOAVAILABLITY AND BIOACTIVITY” (North Carolina State University, priority 2017, published 2020)
Blank lines part the entries; values can stand above or below the compound they belong to.

Tests used:
[1] = test system: L. fermentum ATCC 14931; test: Phenotypic growth assay (OD600); format: cell-based; details: SDM + 1% (w/v) carbohydrate (0.5% esculin), 37° C., 30 hours; corrected to medium without carbohydrate
Description: (§1) Phenotypic growth assays were performed using 1% (v/v) overnight cultures of L. acidophilus strains (Table 2) and other Lactobacillus species (Table 3) grown on SDM supplemented with 1% (w/v) glucose to inoculate 200 μL of SDM supplemented with 1% (w/v) of the examined carbohydrate (0.5% in the case of esculin) in 96-well microplate wells (Corning Costar, Corning, N.Y., USA) in duplicate or triplicate wells, respectively. The microplates were sealed with clear adhesive film, incubated at 37° C. in a Fluostar Optima microplate reader (BMG Labtech, Cary, N.C., USA), and the cell optical density (OD600) was monitored for 30 hours.

[2] = test system: L. amyloverus ATCC 33620, DSM 20531; test: Phenotypic growth assay (OD600); format: cell-based; details: SDM + 1% (w/v) carbohydrate (0.5% esculin), 37° C., 30 hours; corrected to medium without carbohydrate
Description: as §1

[3] = test system: L. reuteri (ATCC 23272, DSM 20016); test: Phenotypic growth assay (OD600); format: cell-based; details: SDM + 1% (w/v) carbohydrate (0.5% esculin), 37° C., 30 hours; corrected to medium without carbohydrate
Description: as §1

[4] = test system: L. johnsonii ATCC 33200; test: Phenotypic growth assay (OD600); format: cell-based; details: SDM + 1% (w/v) carbohydrate (0.5% esculin), 37° C., 30 hours; corrected to medium without carbohydrate
Description: as §1

[5] = test system: L. helveticus CNRZ32; test: Phenotypic growth assay (OD600); format: cell-based; details: SDM + 1% (w/v) carbohydrate (0.5% esculin), 37° C., 30 hours; corrected to medium without carbohydrate
Description: as §1

[6] = test system: L. acidophilus LA-1; test: Phenotypic growth assay (OD600); format: cell-based; details: SDM + 1% (w/v) carbohydrate (0.5% esculin), 37° C., 30 hours; corrected to medium without carbohydrate
Description: as §1

[7] = test system: L. gasseri ATCC 33323; test: Phenotypic growth assay (OD600); format: cell-based; details: SDM + 1% (w/v) carbohydrate (0.5% esculin), 37° C., 30 hours; corrected to medium without carbohydrate
Description: as §1

[8] = test system: L. plantarum sp. plantarum ATCC 14917, LA70; test: Phenotypic growth assay (OD600); format: cell-based; details: SDM + 1% (w/v) carbohydrate (0.5% esculin), 37° C., 30 hours; corrected to medium without carbohydrate
Description: as §1

[9] = test system: L. crispatus ATCC 33820, DSM 20584; test: Phenotypic growth assay (OD600); format: cell-based; details: SDM + 1% (w/v) carbohydrate (0.5% esculin), 37° C., 30 hours; corrected to medium without carbohydrate
Description: as §1

[10] = test system: L. intestinalis Th4, ATCC 49335, DSM 6629; test: Phenotypic growth assay (OD600); format: cell-based; details: SDM + 1% (w/v) carbohydrate (0.5% esculin), 37° C., 30 hours; corrected to medium without carbohydrate
Description: as §1

[11] = test system: L. animalis DSM 20602; test: Phenotypic growth assay (OD600); format: cell-based; details: SDM + 1% (w/v) carbohydrate (0.5% esculin), 37° C., 30 hours; corrected to medium without carbohydrate
Description: as §1

[12] = test system: L. jensenii ATCC 25258, 62G, DSM 20557; test: Phenotypic growth assay (OD600); format: cell-based; details: SDM + 1% (w/v) carbohydrate (0.5% esculin), 37° C., 30 hours; corrected to medium without carbohydrate
Description: as §1

[13] = test system: L. rhanmosus GG (ATCC 53103); test: Phenotypic growth assay (OD600); format: cell-based; details: SDM + 1% (w/v) carbohydrate (0.5% esculin), 37° C., 30 hours; corrected to medium without carbohydrate
Description: as §1

[14] = test system: L. acidophilus NCFM; test: Growth of L. acidophilus NCFM on plant glycosides as single carbon source (OD600); format: cell-based, Lactobacillus acidophilus
Description: (§2) For initial growth and gene expression studies, L. acidophilus NCFM was propagated three times in semi-defined medium (SDM) supplemented with either 1% or 0,5% (w/v) of the plant glycoside or carbohydrate (Table 1). For the RNA-seq analysis, cells were harvested by centrifugation (3,220×10 min, 25° C.) in the mid-exponential phase (OD600=0.6-0.8) and stored at −80° C. for subsequent RNA isolation. For the mass spectrometry metabolite analyses, 200 μt samples were taken at 0, 3, 6, 9, 12, and 24 hours of growth; cells were removed by centrifugation; and supernatants were stored at −80° C. for further analysis.
as §1
(§3) The growth of L. acidophilus NCFM was evaluated on twelve chemically diverse, nutritionally relevant and/or therapeutically active PGs 1; Table 1). FIG. 1A provides the structures and common sources of plant glycoside substrates described herein. The compounds that support growth of Lactobacillus acidophilus are in green. RI: β-D-Glcp; R2: Gentiobioside (β-D-Glcp-(1,6)-D-Glcp); R3: Rutinoside (α-L-Rhaf-(1,6)-D-Glcp). The graph in FIG. 1B depicts plant glycoside utilization analyzed by mass spectrometry and the growth as the maximum OD600. Due to the low solubility of polydatin, OD600 cannot be used as a growth metric and utilization of this compound is confirmed by the production of lactate as well as a high utilization level based on the metabolite analysis.

[15] = test system: NCK2424 (ΔLBA0726); test: Phenotypic growth analysis of deletion mutant (phospho-β-glucosidase); format: cell-based, Lactobacillus acidophilus; details: compared with background Δupp strain
Description: as §1
Construction of gene deletion mutants. The L. acidophilus NCFM genes LBA0225 and LBA0726, both encoding P-Bgl of glycoside hydrolase family 1 (GH1) enzymes in addition to the LBA0227 and LBA0725 genes encoding an EIIC and an EIICBA components of two PTS systems, respectively, were deleted using the upp-based counterselectable gene replacement system. Briefly, in-frame deletions were constructed by amplifying 650-750 bp of the up- and downstream flanking regions of the deletion targets with two primer pairs (e.g., LBA0225A/LBA0225B and LBA0225C/LBA0225D; Table 4). The resulting purified products were joined by splicing using overlap extension PCR (SOE-PCR63) and amplified to establish the deletion alleles. The SOE-PCR products, that include flanking restriction enzyme sites, were cloned within the BamHI and SacI/EcoRI sites of the pTRK935 integration vector and transformed into E. coli EC101. […]
To establish the functional significance of these two loci, single deletions of each PTS EII and P-Bgl gene, and a double deletion of both P-Bgl genes were constructed using the upp-based counter-selectable gene replacement system (Table 2) and the growth phenotypes of the mutant strains were analyzed (FIG. 3). […]

[16] = test system: NCK2422 (ΔLBA0725); test: Phenotypic growth analysis of deletion mutant (PTS EIICBA); format: cell-based, Lactobacillus acidophilus
Description: as §1
Construction of gene deletion mutants. The L. acidophilus NCFM genes LBA0225 and LBA0726, both encoding P-Bgl of glycoside hydrolase family 1 (GH1) enzymes in addition to the LBA0227 and LBA0725 genes encoding an EIIC and an EIICBA components of two PTS systems, respectively, were deleted using the upp-based counterselectable gene replacement system. Briefly, in-frame deletions were constructed by amplifying 650-750 bp of the up- and downstream flanking regions of the deletion targets with two primer pairs (e.g., LBA0225A/LBA0225B and LBA0225C/LBA0225D; Table 4). The resulting purified products were joined by splicing using overlap extension PCR (SOE-PCR63) and amplified to establish the deletion alleles. The SOE-PCR products, that include flanking restriction enzyme sites, were cloned within the BamHI and SacI/EcoRI sites of the pTRK935 integration vector and transformed into E. coli EC101. The resulting recombinant plasmids (pTRK1113-6) were confirmed by DNA sequencing and electroporated into L. acidophilus NCK1910 (Table 2) that contains the pTRK669 helper plasmid, and the recovery of the single- and double-crossover recombinants was performed as previously described. Recombinants carrying the new gene deletion alleles were isolated by colony PCR using primer pairs denoted up/down (e.g., LBA0225up/LBA0225down), which anneal to the flanking regions of the amplicons. Sequence integrity and in-frame deletions were verified by DNA sequencing employing the aforementioned primer pairs and primer denoted mid (e.g., LBA0225mid). The mutations were in-frame deletions of 90-96% of the coding regions.
To establish the functional significance of these two loci, single deletions of each PTS EII and P-Bgl gene, and a double deletion of both P-Bgl genes were constructed using the upp-based counter-selectable gene replacement system (Table 2) and the growth phenotypes of the mutant strains were analyzed (FIG. 3). Phenotypic growth analyses of deletion mutants of EII PTS transporters (FIGS. 3A, 3C, 3E, 3G, and 3I) and phospho-β-glucosidase (FIGS. 3B, 3D, 3F, 3H, and 3J) on the β-glucosides esculin, salicin, amygdalin and the disaccharides gentiobiose and cellobiose. The background Aupp strain is shown as a grey fill graph and the growth of the mutant strains is shown as: PTS EIIC (LBA0227, pink triangle), the phospho-β-glucosidase (LBA0225, light blue triangles), the PTS EIICBA (LBA0725, yellow squares), the second phospho-β-glucosidase (LBA0726, lilac squares) and the double phospho-β-glucosidase mutant (LBA0225/LBA0726, black stars). The color scheme is consistent with that used for the gene loci in FIG. 2.

[17] = test system: L. acidophilus NCFM; test: Plant glycoside uptake and metabolite analysis of L. acidophilus NCFM culture supernatants by UHPLC-DAD-Q-TOF-MS; format: cell-based, Lactobacillus acidophilus
Description: as §2
Analysis of plant glycoside uptake from L. acidophilus NCFM culture supernatants using mass spectrometry. The supernatants of L. acidophilus NCFM cultures grown on amygdalin, arbutin, esculin or salicin as carbon sources were analyzed during 24 hours by ultra-high performance liquid chromatography-diode array detection-quadruple time of flight mass spectrometry (UHPLC-DAD-Q-TOF-MS). Samples were diluted 1:20 (v/v) with methanol and an injection volume of […] was used. Separation was carried out on an Agilent Poroshell 120 phenyl-hexyl column (2.1×150 mm, 2.7 μm) using the Agilent Infinity 1290 UHPLC system (Agilent Technologies, Santa Clara, Calif., USA) equipped with a UV/vis spectrum diode array detector. Separation was performed at 0.35 mL min-1., 60° C. with a linear gradient consisting of water (A) and acetonitrile (B) both buffered with 20 mM formic acid, starting at 10% B and increased to 100% in 15 min where it was held for 2 min, returned to 10% in 0.1 min and kept for 3 min. MS detection was performed on an Agilent 6550 iFunnel QTOF MS equipped with Agilent Dual Jet Stream electrospray ion source with the drying gas temperature of 160° C. and gas flow of 13 L min^−1, whereas the sheath gas temperature was 300° C. and flow was 16 L min-1. Ionization was conducted in ESI-mode with capillary voltage set to 4000 V and nozzle voltage to 500 V. Mass spectra were recorded as centroid data for m/z 85-1700 in MS mode with an acquisition rate of 10 spectra s^−1. To avoid carry-over, the needle seat was back-flushed for 15 s at 4 mL min-1 with each of: i) isopropanol: 0.2% ammonium hydroxide (w/v) in water (1:1 v/v); ii) acetonitrile with 2% formic acid (w/v); iii) water with 2% formic acid. Data was processed with the Agilent Mass Hunter Qualitative Analysis B.07.00 software package (Agilent Technologies) and molar concentrations were obtained from standard curves of the plant glycosides and their main metabolites. Targeted compound searches were performed using lists of previously identified compounds plus standard chemical modifications.

[18] = Solubility in growth experiments (observation); format: physicochemical; details: in growth medium; precluded OD600 nm as growth metric
Description: as §3

SMILES: O=C[C@H](O)[C@@H](O)[C@H](O[C@@H]1O[C@H](CO)[C@@H](O)[C@H](O)[C@H]1O)[C@H](O)CO [Cellobiose, reference compound]
Growth (OD600 max class) of L. fermentum ATCC 14931 [1]: − (“−” signifies OD600 max < 0.1.)
Growth (OD600 max class) of L. amyloverus ATCC 33620, DSM 20531 [2]: +++ (“+++” signifies OD600 max > 0.6.)
Growth (OD600 max class) of L. reuteri (ATCC 23272, DSM 20016) [3]: − (“−” signifies OD600 max < 0.1.)
Growth (OD600 max class) of L. johnsonii ATCC 33200 [4]: + (“+” signifies 0.3 > OD600 max > 0.1.)
Growth (OD600 max class) of L. helveticus CNRZ32 [5]: + (“+” signifies 0.3 > OD600 max > 0.1.)
Growth (OD600 max class) of L. acidophilus LA-1 [6]: +++ (“+++” signifies OD600 max > 0.6.)
Growth (OD600 max class) of L. gasseri ATCC 33323 [7]: ++ (“++” signifies 0.6 > OD600 max > 0.3.)
Growth (OD600 max class) of L. plantarum sp. plantarum ATCC 14917, LA70 [8]: +++ (“+++” signifies OD600 max > 0.6.)
Growth (OD600 max class) of L. crispatus ATCC 33820, DSM 20584 [9]: − (“−” signifies OD600 max < 0.1.)
Growth (OD600 max class) of L. intestinalis Th4, ATCC 49335, DSM 6629 [10]: − (“−” signifies OD600 max < 0.1.)
Growth (OD600 max class) of L. animalis DSM 20602 [11]: + (“+” signifies 0.3 > OD600 max > 0.1.)
Growth (OD600 max class) of L. jensenii ATCC 25258, 62G, DSM 20557 [12]: ++ (“++” signifies 0.6 > OD600 max > 0.3.)
Growth (OD600 max class) of L. rhanmosus GG (ATCC 53103) [13]: +++ (“+++” signifies OD600 max > 0.6.)
Growth (OD600 max class) of L. acidophilus NCFM ([14]; SDM + 1% (w/v) carbohydrate (0.5% esculin), 37° C., 30 hours, corrected to medium without carbohydrate): ++ (“++” signifies 0.6 > OD600 max > 0.3.)
growth of the ΔLBA0726 mutant (P-Bgl) [15]: unaffected
reduction of growth on inactivation of the EIICBA (LBA0725) [16]: about 50%
growth of the ΔLBA0725 mutant (inactive PTS EIICBA) ([16]; compared with background Δupp strain): moderately reduced

solubility [18]: poor solubility
SMILES: OC[C@H]1O[C@@H](Oc2cc(O)cc(/C=C/c3ccc(O)cc3)c2)[C@H](O)[C@@H](O)[C@@H]1O [Polydatin]
growth on compound (OD600 not usable) ([14]; verified by production of lactate and metabolite analysis): verified by production of lactate and metabolite analysis
aglycone / main metabolite identified in culture supernatant ([17]; L. acidophilus NCFM growing on the glycoside, up to 24 h): resveratrol
Catabolism based on MS ([17]; growth concentration 0.5% (w/v), qualitative: depletion of the plant glycoside and/or appearance of its metabolites): Yes
